Measured values: ChEMBL document CHEMBL3734671, “Design and synthesis of an in vivo-efficacious PIM3 kinase inhibitor as a candidate anti-pancreatic cancer agent” (Bioorg Med Chem Lett, 2015)

Columns and labels:
[1] = biological target: Serine/threonine-protein kinase Sgk1 (Homo sapiens) (UniProt O00141); test: Inhibition of SGK (unknown origin) at 200 nM by electrophoretic mobility shift assay
[2] = biological target: Dual specificity mitogen-activated protein kinase kinase 1 (Homo sapiens) (UniProt Q02750); test: Inhibition of MAP2K1 (unknown origin) at 200 nM by ELISA
[3] = biological target: RAF proto-oncogene serine/threonine-protein kinase (Homo sapiens) (UniProt P04049); test: Inhibition of RAF1 (unknown origin) at 200 nM by ELISA
[4] = biological target: Receptor-type tyrosine-protein kinase FLT3 (Homo sapiens) (UniProt P36888); test: Inhibition of FLT3 (unknown origin) at 200 nM by electrophoretic mobility shift assay
[5] = Growth inhibition of human PANC1 cells after 72 hrs by CCK-8 assay; type: functional, cell-based; conditions: PANC-1, 72 h
CYP1A2 = biological target: T1, CYP1A2 (Homo sapiens, UniProt P05177); test: Inhibition of CYP1A2 (unknown origin) at 10 uM; type: ADME
T1 sequence (P05177 whole entry): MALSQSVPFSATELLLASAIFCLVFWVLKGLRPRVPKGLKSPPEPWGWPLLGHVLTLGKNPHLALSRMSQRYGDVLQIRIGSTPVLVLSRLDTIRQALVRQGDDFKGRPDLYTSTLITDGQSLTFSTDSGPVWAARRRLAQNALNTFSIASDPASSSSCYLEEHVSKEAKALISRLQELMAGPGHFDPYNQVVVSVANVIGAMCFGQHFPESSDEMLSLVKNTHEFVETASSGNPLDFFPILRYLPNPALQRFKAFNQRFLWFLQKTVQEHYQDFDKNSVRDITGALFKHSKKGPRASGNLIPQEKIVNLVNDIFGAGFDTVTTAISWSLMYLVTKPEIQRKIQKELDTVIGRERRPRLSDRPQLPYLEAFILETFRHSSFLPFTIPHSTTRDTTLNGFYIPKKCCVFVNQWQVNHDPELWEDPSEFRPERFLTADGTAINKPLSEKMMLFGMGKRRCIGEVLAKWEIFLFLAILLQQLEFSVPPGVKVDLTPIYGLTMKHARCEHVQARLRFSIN

CYP2C9 = CYP2C9 (Homo sapiens, UniProt P11712); test: Inhibition of CYP2C9 (unknown origin) at 10 uM; type: ADME
CYP2C19 = CYP2C19 (Homo sapiens, UniProt P33261); test: Inhibition of CYP2C19 (unknown origin) at 10 uM; type: ADME
CYP3A4 = CYP3A4 (Homo sapiens, UniProt P08684); test: Inhibition of CYP3A4 (unknown origin) at 10 uM; type: ADME
[6] = biological target: Tyrosine-protein kinase ABL1 (Homo sapiens) (UniProt P00519); test: Inhibition of ABL (unknown origin) at 200 nM by electrophoretic mobility shift assay
[7] = biological target: Tyrosine-protein kinase CSK (Homo sapiens) (UniProt P41240); test: Inhibition of CSK (unknown origin) at 200 nM by electrophoretic mobility shift assay
[8] = biological target: Ephrin type-A receptor 2 (Homo sapiens) (UniProt P29317); test: Inhibition of EPHA2 (unknown origin) at 200 nM by electrophoretic mobility shift assay
[9] = biological target: Fibroblast growth factor receptor 1 (Homo sapiens) (UniProt P11362); test: Inhibition of FGFR1 (unknown origin) at 200 nM by electrophoretic mobility shift assay
[10] = biological target: Tyrosine-protein kinase ITK/TSK (Homo sapiens) (UniProt Q08881); test: Inhibition of ITK (unknown origin) at 200 nM by electrophoretic mobility shift assay
[11] = biological target: Tyrosine-protein kinase JAK3 (Homo sapiens) (UniProt P52333); test: Inhibition of JAK3 (unknown origin) at 200 nM by electrophoretic mobility shift assay
[12] = biological target: Hepatocyte growth factor receptor (Homo sapiens) (UniProt P08581); test: Inhibition of MET (unknown origin) at 200 nM by electrophoretic mobility shift assay
[13] = biological target: Platelet-derived growth factor receptor alpha (Homo sapiens) (UniProt P16234); test: Inhibition of PDGFRalpha (unknown origin) at 200 nM by electrophoretic mobility shift assay
[14] = biological target: Protein-tyrosine kinase 2-beta (Homo sapiens) (UniProt Q14289); test: Inhibition of PYK2 (unknown origin) at 200 nM by electrophoretic mobility shift assay
[15] = biological target: Aurora kinase A (Homo sapiens) (UniProt O14965); test: Inhibition of AurA (unknown origin) at 200 nM by electrophoretic mobility shift assay
[16] = biological target: Serine/threonine-protein kinase Chk1 (Homo sapiens) (UniProt O14757); test: Inhibition of CHK1 (unknown origin) at 200 nM by electrophoretic mobility shift assay
[17] = biological target: Death-associated protein kinase 1 (Homo sapiens, UniProt P53355); test: Inhibition of DAPK1 (unknown origin) at 200 nM by electrophoretic mobility shift assay
[18] = biological target: Dual specificity tyrosine-phosphorylation-regulated kinase 1B (Homo sapiens) (UniProt Q9Y463); test: Inhibition of DYRK1B (unknown origin) at 200 nM by electrophoretic mobility shift assay
[19] = biological target: Mitogen-activated protein kinase 1 (Homo sapiens) (UniProt P28482); test: Inhibition of Erk2 (unknown origin) at 200 nM by electrophoretic mobility shift assay
[20] = biological target: Mitogen-activated protein kinase 9 (Homo sapiens) (UniProt P45984); test: Inhibition of JNK2 (unknown origin) at 200 nM by electrophoretic mobility shift assay
[21] = biological target: Mitogen-activated protein kinase 14 (Homo sapiens) (UniProt Q16539); test: Inhibition of p38alpha (unknown origin) at 200 nM by electrophoretic mobility shift assay
[22] = biological target: Serine/threonine-protein kinase PAK 4 (Homo sapiens) (UniProt O96013); test: Inhibition of PAK4 (unknown origin) at 200 nM by electrophoretic mobility shift assay
[23] = biological target: 3-phosphoinositide-dependent protein kinase 1 (Homo sapiens) (UniProt O15530); test: Inhibition of PDK1 (unknown origin) at 200 nM by electrophoretic mobility shift assay
[24] = biological target: Serine/threonine-protein kinase pim-1 (Homo sapiens, UniProt P11309); test: Inhibition of PIM1 (unknown origin) at 200 nM by electrophoretic mobility shift assay
[25] = biological target: Serine/threonine-protein kinase pim-3 (Homo sapiens, UniProt Q86V86); test: Inhibition of PIM3 (unknown origin) at 200 nM by electrophoretic mobility shift assay
[26] = biological target: cAMP-dependent protein kinase catalytic subunit alpha (Homo sapiens) (UniProt P17612); test: Inhibition of PKACalpha (unknown origin) at 200 nM by electrophoretic mobility shift assay
[27] = biological target: Serine/threonine-protein kinase D2 (Homo sapiens) (UniProt Q9BZL6); test: Inhibition of PKD2 (unknown origin) at 200 nM by electrophoretic mobility shift assay
[28] = biological target: Rho-associated protein kinase 1 (Homo sapiens) (UniProt Q13464); test: Inhibition of ROCK1 (unknown origin) at 200 nM by electrophoretic mobility shift assay

Sequence of CYP3A4 (P08684 whole entry): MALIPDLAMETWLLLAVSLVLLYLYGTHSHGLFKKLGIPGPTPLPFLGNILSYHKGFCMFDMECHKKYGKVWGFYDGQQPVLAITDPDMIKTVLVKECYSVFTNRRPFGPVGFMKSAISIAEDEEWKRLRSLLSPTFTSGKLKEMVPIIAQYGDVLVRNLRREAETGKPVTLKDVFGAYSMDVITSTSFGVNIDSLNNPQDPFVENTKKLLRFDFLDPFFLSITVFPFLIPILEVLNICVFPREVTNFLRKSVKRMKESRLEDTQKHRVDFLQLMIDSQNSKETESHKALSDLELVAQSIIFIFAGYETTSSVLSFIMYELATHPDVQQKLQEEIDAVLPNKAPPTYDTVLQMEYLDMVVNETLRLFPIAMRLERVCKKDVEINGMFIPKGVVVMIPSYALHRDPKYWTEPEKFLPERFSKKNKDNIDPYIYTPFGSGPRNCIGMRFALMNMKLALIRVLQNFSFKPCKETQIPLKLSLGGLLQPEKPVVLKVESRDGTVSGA
Sequence of Serine/threonine-protein kinase D2 (Homo sapiens) (Q9BZL6 whole entry): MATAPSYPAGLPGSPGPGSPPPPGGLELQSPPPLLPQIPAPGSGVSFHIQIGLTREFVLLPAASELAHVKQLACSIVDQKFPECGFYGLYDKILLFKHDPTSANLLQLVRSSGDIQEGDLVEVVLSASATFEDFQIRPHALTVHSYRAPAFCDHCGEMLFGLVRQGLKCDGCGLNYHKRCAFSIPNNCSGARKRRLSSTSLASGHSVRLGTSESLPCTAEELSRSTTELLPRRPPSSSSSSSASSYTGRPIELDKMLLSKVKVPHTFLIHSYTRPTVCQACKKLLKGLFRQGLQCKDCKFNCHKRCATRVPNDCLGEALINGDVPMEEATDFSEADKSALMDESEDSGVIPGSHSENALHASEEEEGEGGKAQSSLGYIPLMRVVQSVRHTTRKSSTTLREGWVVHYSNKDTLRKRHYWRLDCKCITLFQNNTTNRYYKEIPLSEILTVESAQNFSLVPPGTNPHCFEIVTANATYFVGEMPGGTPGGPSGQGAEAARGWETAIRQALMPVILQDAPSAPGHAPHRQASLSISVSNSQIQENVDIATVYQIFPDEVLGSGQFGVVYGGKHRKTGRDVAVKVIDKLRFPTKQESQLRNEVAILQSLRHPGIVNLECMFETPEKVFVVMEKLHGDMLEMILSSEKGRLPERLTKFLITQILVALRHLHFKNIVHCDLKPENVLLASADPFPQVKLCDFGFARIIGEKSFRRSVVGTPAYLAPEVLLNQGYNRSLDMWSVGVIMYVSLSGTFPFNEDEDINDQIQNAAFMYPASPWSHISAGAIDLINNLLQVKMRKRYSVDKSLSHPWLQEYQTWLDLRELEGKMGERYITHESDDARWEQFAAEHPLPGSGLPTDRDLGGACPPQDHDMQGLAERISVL
Sequence of Ephrin type-A receptor 2 (Homo sapiens) (P29317 whole entry): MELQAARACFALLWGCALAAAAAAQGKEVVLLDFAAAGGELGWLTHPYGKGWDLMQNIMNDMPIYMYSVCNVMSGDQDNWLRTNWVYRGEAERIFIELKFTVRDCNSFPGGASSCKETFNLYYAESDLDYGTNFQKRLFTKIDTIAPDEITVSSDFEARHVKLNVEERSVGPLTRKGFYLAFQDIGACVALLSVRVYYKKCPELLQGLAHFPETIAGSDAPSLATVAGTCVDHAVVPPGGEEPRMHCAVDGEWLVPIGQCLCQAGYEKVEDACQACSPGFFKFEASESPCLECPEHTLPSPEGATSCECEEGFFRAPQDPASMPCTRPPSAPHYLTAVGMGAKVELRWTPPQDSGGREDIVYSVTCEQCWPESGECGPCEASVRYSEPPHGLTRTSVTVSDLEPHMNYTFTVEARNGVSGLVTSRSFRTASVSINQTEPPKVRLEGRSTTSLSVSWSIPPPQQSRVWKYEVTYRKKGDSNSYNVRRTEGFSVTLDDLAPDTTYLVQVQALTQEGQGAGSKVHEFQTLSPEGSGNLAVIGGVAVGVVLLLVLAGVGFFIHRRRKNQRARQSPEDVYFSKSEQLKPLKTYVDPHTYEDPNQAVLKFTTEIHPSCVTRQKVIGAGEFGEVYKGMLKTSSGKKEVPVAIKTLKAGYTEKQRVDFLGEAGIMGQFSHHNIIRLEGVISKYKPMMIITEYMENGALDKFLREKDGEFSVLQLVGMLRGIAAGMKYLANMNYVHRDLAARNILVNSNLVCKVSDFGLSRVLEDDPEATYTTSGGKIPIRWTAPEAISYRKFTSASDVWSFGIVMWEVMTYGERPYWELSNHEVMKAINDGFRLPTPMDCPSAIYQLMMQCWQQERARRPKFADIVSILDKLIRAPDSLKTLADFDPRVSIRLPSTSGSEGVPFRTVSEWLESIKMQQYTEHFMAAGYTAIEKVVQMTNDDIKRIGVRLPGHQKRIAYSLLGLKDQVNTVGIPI
Sequence of Receptor-type tyrosine-protein kinase FLT3 (Homo sapiens) (P36888 whole entry): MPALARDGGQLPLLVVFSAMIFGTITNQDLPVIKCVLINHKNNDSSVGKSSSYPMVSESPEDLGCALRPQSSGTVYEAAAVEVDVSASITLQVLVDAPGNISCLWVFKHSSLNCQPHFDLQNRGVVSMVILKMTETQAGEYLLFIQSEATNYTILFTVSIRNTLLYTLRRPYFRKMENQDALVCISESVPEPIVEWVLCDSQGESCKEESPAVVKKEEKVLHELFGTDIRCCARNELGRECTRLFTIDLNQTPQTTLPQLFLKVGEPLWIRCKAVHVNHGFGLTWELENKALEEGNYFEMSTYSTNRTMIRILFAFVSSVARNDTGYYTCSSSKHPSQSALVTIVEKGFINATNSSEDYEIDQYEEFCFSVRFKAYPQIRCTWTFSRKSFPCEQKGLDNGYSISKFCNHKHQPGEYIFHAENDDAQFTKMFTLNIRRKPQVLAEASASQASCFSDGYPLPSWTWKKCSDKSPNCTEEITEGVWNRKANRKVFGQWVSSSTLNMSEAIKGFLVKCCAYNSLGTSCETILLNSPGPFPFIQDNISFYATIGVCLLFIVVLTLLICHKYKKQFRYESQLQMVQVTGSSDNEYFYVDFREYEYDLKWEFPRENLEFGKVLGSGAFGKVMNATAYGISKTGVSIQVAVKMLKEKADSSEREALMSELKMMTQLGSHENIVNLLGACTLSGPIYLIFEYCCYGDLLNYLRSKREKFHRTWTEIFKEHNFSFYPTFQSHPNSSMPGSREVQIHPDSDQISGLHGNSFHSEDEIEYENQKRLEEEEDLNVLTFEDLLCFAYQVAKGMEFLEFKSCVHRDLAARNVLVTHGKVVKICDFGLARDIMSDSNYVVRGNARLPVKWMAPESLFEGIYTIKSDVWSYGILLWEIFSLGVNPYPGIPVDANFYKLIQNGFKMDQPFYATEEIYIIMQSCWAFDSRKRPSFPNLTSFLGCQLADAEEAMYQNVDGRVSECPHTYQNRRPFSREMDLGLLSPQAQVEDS
Sequence of Tyrosine-protein kinase CSK (Homo sapiens) (P41240 2-450 limits assumed): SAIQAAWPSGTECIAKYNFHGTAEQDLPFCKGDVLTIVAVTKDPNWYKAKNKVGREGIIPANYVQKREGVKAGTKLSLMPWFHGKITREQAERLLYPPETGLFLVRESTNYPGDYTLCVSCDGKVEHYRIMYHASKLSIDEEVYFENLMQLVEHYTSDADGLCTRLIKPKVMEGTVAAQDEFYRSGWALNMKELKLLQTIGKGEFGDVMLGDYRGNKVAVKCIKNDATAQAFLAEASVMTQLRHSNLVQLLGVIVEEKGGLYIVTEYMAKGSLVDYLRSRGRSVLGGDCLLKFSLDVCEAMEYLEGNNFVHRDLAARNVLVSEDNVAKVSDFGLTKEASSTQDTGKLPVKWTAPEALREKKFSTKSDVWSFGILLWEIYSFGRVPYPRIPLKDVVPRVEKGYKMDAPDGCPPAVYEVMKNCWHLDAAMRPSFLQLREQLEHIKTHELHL
Sequence of CYP2C19 (P33261 whole entry): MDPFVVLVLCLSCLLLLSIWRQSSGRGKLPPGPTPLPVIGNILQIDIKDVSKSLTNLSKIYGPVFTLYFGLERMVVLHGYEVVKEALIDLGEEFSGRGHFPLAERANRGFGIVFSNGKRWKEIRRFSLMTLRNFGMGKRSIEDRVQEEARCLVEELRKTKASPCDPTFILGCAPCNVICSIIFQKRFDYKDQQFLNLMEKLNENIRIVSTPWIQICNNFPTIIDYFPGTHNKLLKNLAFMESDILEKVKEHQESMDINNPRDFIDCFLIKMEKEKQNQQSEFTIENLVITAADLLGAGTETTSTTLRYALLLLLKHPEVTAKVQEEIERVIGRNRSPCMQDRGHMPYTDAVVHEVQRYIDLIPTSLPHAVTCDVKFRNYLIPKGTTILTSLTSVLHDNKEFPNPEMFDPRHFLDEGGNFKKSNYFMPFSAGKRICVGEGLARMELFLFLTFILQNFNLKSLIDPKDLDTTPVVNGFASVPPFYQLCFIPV
Sequence of Serine/threonine-protein kinase Chk1 (Homo sapiens) (O14757 whole entry): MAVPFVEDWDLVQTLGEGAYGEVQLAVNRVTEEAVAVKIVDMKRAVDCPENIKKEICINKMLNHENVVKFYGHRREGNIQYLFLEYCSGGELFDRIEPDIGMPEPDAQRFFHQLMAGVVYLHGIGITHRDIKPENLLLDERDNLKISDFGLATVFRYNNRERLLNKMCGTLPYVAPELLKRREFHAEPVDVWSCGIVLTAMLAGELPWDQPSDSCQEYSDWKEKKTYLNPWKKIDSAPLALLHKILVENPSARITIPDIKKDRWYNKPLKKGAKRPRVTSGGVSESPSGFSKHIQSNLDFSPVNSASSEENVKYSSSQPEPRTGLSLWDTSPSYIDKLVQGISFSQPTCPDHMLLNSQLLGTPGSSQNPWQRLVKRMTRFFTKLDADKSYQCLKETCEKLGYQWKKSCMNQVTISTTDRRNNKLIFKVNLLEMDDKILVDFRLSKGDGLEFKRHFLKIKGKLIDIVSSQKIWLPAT

SMILES | inhibition [1] [%] | inhibition [2] [%] | inhibition [3] [%] | inhibition [4] [%] | IC50 [5] [µM] | inhibition at 10 µM (CYP1A2) [%] | inhibition at 10 µM (CYP2C9) [%] | inhibition at 10 µM (CYP2C19) [%] | inhibition at 10 µM (CYP3A4) [%] | inhibition [6] [%] | inhibition [7] [%] | inhibition [8] [%] | inhibition [9] [%] | inhibition [10] [%] | inhibition [11] [%] | inhibition [12] [%] | inhibition [13] [%] | inhibition [14] [%] | inhibition [15] [%] | inhibition [16] [%] | also measured
COc1ccc2c(c1C(C)N1CCNCC1)O/C(=C\c1n[nH]c3ncccc13)C2=O (centres undefined) | 0.6 | -0.4 | -9.9 | 68 | 4 | 2 | < 1 | 16 | < 1 | 1 | 0.9 | -0.3 | 3.1 | 2 | 4.4 | 0.5 | 24.2 | 11.2 | -0.4 | 4.1 | inhibition [17]: 94.9%; inhibition [18]: 48%; inhibition [19]: 0.2%; inhibition [20]: -0.5%; inhibition [21]: -1%; inhibition [22]: -6.7%; inhibition [23]: 0.2%; inhibition [24]: 99.4%; inhibition [25]: 99%; inhibition [26]: 18.4%; inhibition [27]: 13.1%; inhibition [28]: 77%
COc1ccc2c(c1CN1CCNCC1)O/C(=C\c1n[nH]c3ncccc13)C2=O | 4.3 | -7.7 | 11.3 | 55.5 | 5.6 | 33 | < 1 | < 1 | 39 | -4.1 | -5.8 | -2.2 | -4 | 3.5 | 1.5 | -2.3 | 5.4 | -0.4 | 5.1 | 9.2 | inhibition [17]: 80.5%; inhibition [18]: 24.8%; inhibition [19]: 4.9%; inhibition [20]: 1.8%; inhibition [21]: -1.8%; inhibition [22]: 13%; inhibition [23]: -3.7%; inhibition [24]: 102%; inhibition [25]: 102%; inhibition [26]: 4%; inhibition [27]: 31.6%; inhibition [28]: 88.9%
